Results published in a melting point compilation (Tetko et al.; mined from patent text by program, amines drawn as free bases though some values may be those of a salt).

| melting point [°C] | Compound |
| --- | --- |
| 167 to 169 | N#Cc1ccc(CN2C(=O)C3(COc4cc5c(cc43)OCO5)c3ccccc32)o1 (stereo unspecified) |
| > 300 | Oc1nc2ccnn2c2ncccc12 |
| 200 to 201 | O=C1c2c(-c3ccccc3)ccnc2OCCN1Cc1cc(C(F)(F)F)cc(C(F)(F)F)c1 |
| 124 to 125 | Cn1cc(CC(=O)O)c(OCc2cc(OCc3ccc4ccccc4n3)no2)n1 |
| 110 to 112 | COC(=O)N1CC[C@@H]2[C@H]1CCC[C@@]2(O)C#Cc1cccc(C)c1 |
| 199 to 200 | CCOC(=O)c1cn(-c2ccccn2)c2occc2c1=O |
| 198 to 200 | O=C1CCC(Nc2ncnc3c2ncn3C2OC(CO)C(O)C2O)N1 (stereo unspecified) |
| 58 to 59 | CCOCc1cc2cc(Cl)ccc2oc1=Nc1ccccc1 |
| 88 to 88.5 | COc1cc([N+](=O)[O-])ccc1-c1cccc(C(=O)O)c1 |
| 87 to 89 | CCOC(=O)c1cccn2c(C#N)c(-c3ccccc3)nc12 |
| > 275 | O=c1c2ccccc2nc(-c2sc(Nc3ccc(Cl)cc3)nc2-c2ccccc2)n1-c1ccccc1 |
| 164 to 166 | CN1CCCC1c1ccc(Nc2cc(-c3cc(F)cc(N4CCc5c(sc6c5CCCC6)C4=O)c3CO)cn(C)c2=O)nc1 (stereo unspecified) |
| 172 to 174 | O=C(Nc1ccc(Oc2ccnc(N3CCC(F)(F)CC3)n2)c2ccccc12)c1cc(F)cc(N2CCCCC2)c1 |
| 83 to 84 | CC(CCCc1ccccc1)Oc1cc(O)c2c(c1)OC(C)(C)CC2=O (stereo unspecified) |
| 189 to 192 | Clc1ccc(-c2nc3n(c2-c2ccc(Cl)cc2)CCC3)cc1 |
| 74 to 76 | Cc1cc(OCc2c(-c3c(Cl)cccc3Cl)noc2C(C)C)cnc1Oc1ccc(C(=O)O)cc1 |
| 168 to 170 | Cc1c(C(=O)CS(=O)Cc2ccc(Cl)cc2)sc2ccc(Cl)cc12 (stereo unspecified) |
| 215 to 217 | Brc1oc2ccc(Cc3nnn[nH]3)cc2c1-c1ccccc1 |
| 169 to 171 | Oc1ccc(CBr)cc1-n1nc2ccccc2n1 |
| 114 to 115 | CN1CCN(C(=O)c2cc(N)cc(C(F)(F)F)c2)CC1 |
| 90 | Cc1cn(C2OC(COC(=O)c3ccccc3)C(OC(=O)c3ccccc3)C2OC(=O)c2ccccc2)c(=O)[nH]c1=O (stereo unspecified) |
| 85 to 86 | CCCCCCC(=O)C(NC(=O)C=Cc1ccccc1)C(=O)OC (stereo unspecified) |
| 185 to 187 | O=C(NCc1ccccc1)c1ccnc(NC(=O)c2cc(F)cc(F)c2)c1 |

| melting point [°C] | Compound |
| --- | --- |
| 140 to 142 | Cc1cc(C)cc(CN(C)C(=O)C(Cc2c[nH]c3ccccc23)NC(=O)c2ccccc2)c1 (stereo unspecified) |
| 144 to 146 | COc1ccc2ncccc2c1C1OC(=O)NC1=O (stereo unspecified) |
| 232 to 234 | O=C(C=Cc1ccc(NC(=O)c2ccccc2)cc1)NO |
| 125 to 127 | Nc1nc(Cl)cc(OCC2(CO)CCC2)n1 |
| 81 to 84 | O=C1OC(=Nc2ccc(F)cc2F)C2=C1CCCC2 |
| 192 to 195 | CC1CN(c2nc(N)nc(-c3cc(Cl)ccc3Cl)n2)CC(C)O1 (stereo unspecified) |
| 216 | CC(=O)N1CCc2cc(S(=O)(=O)n3c(CCC(=O)O)cc4nc(Cl)ccc43)ccc21 |
| 197 to 203 | Cn1cnc(N2CCc3ccccc3CC2)c(C#N)c1=O |
| 254 to 255 | O=c1[nH]cc(F)c(=S)[nH]1 |
| 138 | CC(CN1CCCC1)N1c2ccccc2Sc2ccc(C(=O)NCCC(C)(C)C)cc21 (racemic) |
| 58 to 62 | C=C(C(=O)OC)N(Cc1cc(C)ccc1NC(=O)c1ccccc1)S(=O)(=O)c1ccc(OC)cc1 |
| 40 to 41 | ClCn1cnc(Cl)c1Cl |
| 217 to 221 | C=CCNC1=NS(=O)(=O)c2sc(Cl)cc2N1 |
| 229 to 231 | COc1ccccc1-c1ccc2cnc(NC(=O)Nc3ccc(N4CCN(C)CC4)cc3)nn12 |
| 155 to 159 | COC(=O)c1c(N)ncn1C1c2ccccc2CC2CCCCC21 (stereo unspecified) |
| 92 to 94 | CN(C)CCCN1N=C2C(=Cc3ccccc3)CCCCC2C1c1ccccc1 (stereo unspecified) |
| 92 to 95 | CN1C(=O)N(C[C@H](CO)[C@@H](CC2CCCC2)C(=O)N2CCCCC2)C(=O)C1(C)C |
| 148 to 149 | Cc1ncccc1CC(=NC#N)NC1CCc2cc(F)ccc21 (stereo unspecified) |
| 213 | Cc1cc(-c2ccc(Cl)c(Cl)c2)nc(-n2cnc(-c3cccc(S(C)(=O)=O)c3)c2)n1 |
| 112 to 113 | CCCSc1sc(C(N)=O)c2c1-c1c(cnn1C)CC2 |
| 142 to 144 | Cn1cnc2c1c(=O)n(CCCBr)c(=O)n2C |
| 110 | O=C(O)C(=O)C(=O)Nc1cccc([N+](=O)[O-])c1 |
| 232 to 235 | O=c1c(C2=Nc3ccccc3S(=O)(=O)N2)c(O)c2ccccc2n1CC1CCCCC1 |

| melting point [°C] | Compound |
| --- | --- |
| 205 to 213 | COc1ccc(C(N)C2(C(=O)O)C3CC4CC(C3)CC2C4)cc1 (stereo unspecified) |
| 158 to 160 | NC(=O)n1ccc(-c2ccc(Oc3ccc(N)cc3)cc2)n1 |
| 112 to 113 | CC(=O)Nc1cc(C(C)(C)C)ccc1N1CCOCC1 |
| 300 | O=c1[nH]c(=O)c2nc3ccccc3nc2[nH]1 |
| > 300 | CCc1[nH]n(C2CCCC2)c2nc(-c3ccc(-n4ccnc4)cc3)nc(=O)c1-2 |
| 97 to 100 | O=C(CN1C(=O)C2(COc3cc(F)c(F)cc32)c2ccccc21)Nc1ccccc1F (stereo unspecified) |
| 78 to 79 | COCC1CN(c2ccc(C3CCC(OC(C)=O)CC3)cc2)C(=O)O1 (racemic) |
| 162 to 164 | COC(=O)NCCc1cccc(-c2ccnc3c(C#N)cnn23)c1 |
| 233 to 235 | O=C(Nc1n[nH]c(=S)s1)N[C@@H](Cc1c(F)c(F)c(F)c(F)c1F)C(=O)N1CCN(c2ccccn2)CC1 |
| 42 to 43 | CC(=O)SC1NC(=O)C1Cc1ccccc1 (stereo unspecified) |
| 143 to 145 | Cc1ccc(-c2ccc3c(c2)C=C(C(=O)Nc2ccc(CN(C)C4CCOCC4)cc2)CO3)cc1 |
| 167 to 169 | Oc1ccc2c(c1)C(C(Cl)(Cl)Cl)OC(C(Cl)(Cl)Cl)O2 (stereo unspecified) |
| 106 to 109 | CCCc1c(OCC(O)CSc2ccc(C(=O)CCC(=O)O)cc2F)ccc(C(C)=O)c1O (stereo unspecified) |
| 68 to 69 | CCOC(=O)c1ccc(OCc2ccccc2)c(OCc2ccccc2)c1 |
| 133 to 135 | COc1c(C)c2c(c(O)c1C/C=C(\C)C(CC(=O)O)OC)C(=O)OC2 (stereo unspecified) |
| 134 to 135 | CC1(C(N)=O)CCC=[N+]1[O-] (stereo unspecified) |
| 163 to 165 | N#Cc1cccc(C2C(=O)N(Cc3ccccc3)Cc3cncn32)c1 (stereo unspecified) |
| 211 | O=C(N[C@H]1CC[C@H](CCN2CCN(c3nccc4ccoc34)CC2)CC1)C1CCOCC1 |
| 113 to 115 | CC(=O)N1CCN(C(C)=O)C1=Nc1ccc(Cl)cc1Cl |
| 225 to 227 | COc1ccc(CNc2n[nH]c3ncnc(Nc4cccc(Cl)c4)c23)cc1O |
| 132 to 133 | CCC(CC)CC(=O)C1=C(O)c2cc(OC)c(OC)c(OC)c2C(O)(c2ccc(OC)c(OC)c2)C1C(=O)OC (stereo unspecified) |
| 90 to 92 | CCCN(C(C)C)C(C)CC1=C(c2ccc(OC)cc2)CCCNC1=O (stereo unspecified) |
| 39 to 41 | [N-]=[N+]=NCc1ccc(Sc2ccc(Cl)cc2)c(Cl)c1 |

| Compound | melting point [°C] |
| --- | --- |
| C[C@H](N)C(=O)NC1N=C(c2ccccc2Cl)c2cc(Cl)ccc2N(C)C1=O (stereo partly specified) | 232 to 233 |
| COc1ccc(C(O)CN)cc1OC (stereo unspecified) | 80 to 81 |
